Activity calls are given as the source filed them. The calls are words filed in the database; no cut-off is given here.
How the values were obtained:
[1] = molecular target: Mitogen-activated protein kinase 6 (Homo sapiens) (UniProt Q16659); assay: Inhibition of ERK3 (unknown origin) at 10 uM by Ambit Kinomescan binding assay
[2] = molecular target: Serine/threonine-protein kinase 33 (Homo sapiens) (UniProt Q9BYT3); assay: Inhibition of STK33 (unknown origin) at 10 uM by Ambit Kinomescan binding assay
[3] = molecular target: Dual specificity mitogen-activated protein kinase kinase 2 (Homo sapiens) (UniProt P36507); assay: Inhibition of MAP2K2 Lys1 labeling site in human A-375 cells at 5 uM by KiNativ Profiling analysis relative to control; assay type: cell-based
[4] = molecular target: T1, Serine/threonine-protein kinase LATS1 (Homo sapiens) (UniProt O95835); assay: Inhibition of LATS1 Lys2 labeling site in human A-375 cells at 0.05 uM by KiNativ Profiling analysis relative to control; assay type: cell-based
T1 sequence (whole entry): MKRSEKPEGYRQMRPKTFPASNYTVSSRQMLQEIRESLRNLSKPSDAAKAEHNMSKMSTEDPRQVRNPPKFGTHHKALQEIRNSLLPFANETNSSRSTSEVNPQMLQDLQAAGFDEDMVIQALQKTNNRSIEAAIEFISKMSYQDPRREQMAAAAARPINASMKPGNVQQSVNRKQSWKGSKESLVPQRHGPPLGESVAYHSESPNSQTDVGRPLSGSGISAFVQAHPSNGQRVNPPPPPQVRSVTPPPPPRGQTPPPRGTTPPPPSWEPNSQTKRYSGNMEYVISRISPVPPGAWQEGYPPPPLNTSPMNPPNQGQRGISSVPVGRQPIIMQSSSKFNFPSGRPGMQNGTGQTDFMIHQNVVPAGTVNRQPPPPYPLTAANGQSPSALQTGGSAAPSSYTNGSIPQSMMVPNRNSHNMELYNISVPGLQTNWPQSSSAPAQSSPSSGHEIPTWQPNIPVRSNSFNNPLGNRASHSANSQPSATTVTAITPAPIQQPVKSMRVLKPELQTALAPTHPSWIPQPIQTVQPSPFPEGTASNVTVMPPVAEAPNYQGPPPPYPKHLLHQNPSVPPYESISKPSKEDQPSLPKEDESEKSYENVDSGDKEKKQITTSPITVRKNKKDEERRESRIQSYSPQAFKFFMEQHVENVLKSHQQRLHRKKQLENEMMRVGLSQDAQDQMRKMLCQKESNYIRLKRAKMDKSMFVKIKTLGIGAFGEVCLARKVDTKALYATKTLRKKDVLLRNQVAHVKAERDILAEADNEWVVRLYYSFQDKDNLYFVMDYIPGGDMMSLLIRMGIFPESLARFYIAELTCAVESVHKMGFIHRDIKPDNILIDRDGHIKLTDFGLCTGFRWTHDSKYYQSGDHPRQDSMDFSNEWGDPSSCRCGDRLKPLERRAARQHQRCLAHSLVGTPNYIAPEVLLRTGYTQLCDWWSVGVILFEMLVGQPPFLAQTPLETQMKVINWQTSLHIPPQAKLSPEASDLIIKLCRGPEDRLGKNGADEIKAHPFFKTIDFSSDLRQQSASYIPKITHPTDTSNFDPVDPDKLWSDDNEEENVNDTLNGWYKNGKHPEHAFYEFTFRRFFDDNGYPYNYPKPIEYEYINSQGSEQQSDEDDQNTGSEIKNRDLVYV

[5] = molecular target: T2, Dual specificity mitogen-activated protein kinase kinase 6 (Homo sapiens) (UniProt P52564); assay: Inhibition of MAP2K6 Lys1 labeling site in human A-375 cells at 0.05 uM by KiNativ Profiling analysis relative to control; assay type: cell-based
T2 sequence (whole entry): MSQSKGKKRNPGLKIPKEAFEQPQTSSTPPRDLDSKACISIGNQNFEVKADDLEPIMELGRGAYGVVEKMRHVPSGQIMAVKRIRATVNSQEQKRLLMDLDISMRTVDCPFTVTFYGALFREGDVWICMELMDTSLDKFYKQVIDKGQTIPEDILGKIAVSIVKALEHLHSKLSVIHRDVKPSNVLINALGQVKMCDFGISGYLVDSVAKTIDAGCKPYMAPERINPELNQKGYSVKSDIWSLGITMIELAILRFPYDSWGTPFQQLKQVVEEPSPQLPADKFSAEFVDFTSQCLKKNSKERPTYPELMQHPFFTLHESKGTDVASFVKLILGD

[6] = molecular target: Calcium/calmodulin-dependent protein kinase type II subunit delta (Homo sapiens) (UniProt Q13557); assay: Inhibition of CAMK2d K1 labeling site in human Huh-7 cells at 10 uM by KiNativ Profiling analysis relative to control; assay type: cell-based
[7] = molecular target: Rho-associated protein kinase (Homo sapiens) (UniProt O75116+Q13464); assay: Inhibition of ROCK1/2 K2 labeling site in human Huh-7 cells at 10 uM by KiNativ Profiling analysis relative to control; assay type: cell-based
[8] = molecular target: Serine/threonine-protein kinase WNK4 (Homo sapiens) (UniProt Q96J92); assay: Inhibition of Wnk4 K2 labeling site in human Huh-7 cells at 10 uM by KiNativ Profiling analysis relative to control; assay type: cell-based
[9] = molecular target: TRAF2 and NCK-interacting protein kinase (Homo sapiens) (UniProt Q9UKE5); assay: Inhibition of TNIK (unknown origin) at 10 uM by Ambit Kinomescan binding assay relative to control; values are per cent of control
[10] = molecular target: Ephrin type-A receptor 7 (Homo sapiens) (UniProt Q15375); assay: Inhibition of EPHA7 (unknown origin) at 1 uM by Ambit Kinomescan binding assay relative to control
[11] = molecular target: cAMP-dependent protein kinase catalytic subunit PRKX (Homo sapiens) (UniProt P51817); assay: Inhibition of PRKX (unknown origin) at 1 uM by Ambit Kinomescan binding assay relative to control
[12] = molecular target: Maternal embryonic leucine zipper kinase (Homo sapiens) (UniProt Q14680); assay: Inhibition of MELK Lys2 labeling site in human A-375 cells at 0.5 uM by KiNativ Profiling analysis relative to control; assay type: cell-based
[13] = molecular target: Phosphatidylinositol 4,5-bisphosphate 3-kinase catalytic subunit alpha isoform (Homo sapiens) (UniProt P42336); assay: Inhibition of PIK3CA ATP labeling site in human A-375 cells at 0.5 uM by KiNativ Profiling analysis relative to control; assay type: cell-based
[14] = molecular target: 5'-AMP-activated protein kinase catalytic subunit alpha-2 (Homo sapiens) (UniProt P54646); assay: Inhibition of AMPKa2 Lys2 labeling site in human A-375 cells at 0.05 uM by KiNativ Profiling analysis relative to control; assay type: cell-based
[15] = molecular target: Cyclin-dependent kinase 7 (Homo sapiens) (UniProt P50613); assay: Inhibition of CDK7 Lys2 labeling site in human A-375 cells at 0.05 uM by KiNativ Profiling analysis relative to control; assay type: cell-based
[16] = molecular target: Serine/threonine-protein kinase MARK2 (Homo sapiens) (UniProt Q7KZI7); assay: Inhibition of MARK2 Lys1 labeling site harbouring EVAVKIIDKTQLNSSSLQK in human Huh-7 cell lysate at 1 uM by KiNativ Profiling analysis relative to control; assay type: subcellular
[17] = molecular target: Mitogen-activated protein kinase 14 (Homo sapiens, UniProt Q16539); assay: Inhibition of p38alpha Lys2 labeling site in human Huh-7 cells at 1 uM by KiNativ Profiling analysis relative to control; assay type: cell-based

cAMP-dependent protein kinase catalytic subunit PRKX (Homo sapiens), sequence (P51817 whole entry): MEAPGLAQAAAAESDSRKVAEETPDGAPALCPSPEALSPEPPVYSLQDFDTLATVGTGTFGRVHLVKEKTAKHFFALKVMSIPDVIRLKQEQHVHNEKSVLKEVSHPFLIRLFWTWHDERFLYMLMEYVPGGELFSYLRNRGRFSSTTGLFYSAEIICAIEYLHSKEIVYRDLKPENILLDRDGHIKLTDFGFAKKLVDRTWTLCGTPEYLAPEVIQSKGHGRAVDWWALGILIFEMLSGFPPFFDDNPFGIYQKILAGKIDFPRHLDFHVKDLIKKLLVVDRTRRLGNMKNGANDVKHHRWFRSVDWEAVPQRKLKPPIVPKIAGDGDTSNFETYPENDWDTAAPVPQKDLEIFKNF
Mitogen-activated protein kinase 6 (Homo sapiens), sequence (Q16659 whole entry): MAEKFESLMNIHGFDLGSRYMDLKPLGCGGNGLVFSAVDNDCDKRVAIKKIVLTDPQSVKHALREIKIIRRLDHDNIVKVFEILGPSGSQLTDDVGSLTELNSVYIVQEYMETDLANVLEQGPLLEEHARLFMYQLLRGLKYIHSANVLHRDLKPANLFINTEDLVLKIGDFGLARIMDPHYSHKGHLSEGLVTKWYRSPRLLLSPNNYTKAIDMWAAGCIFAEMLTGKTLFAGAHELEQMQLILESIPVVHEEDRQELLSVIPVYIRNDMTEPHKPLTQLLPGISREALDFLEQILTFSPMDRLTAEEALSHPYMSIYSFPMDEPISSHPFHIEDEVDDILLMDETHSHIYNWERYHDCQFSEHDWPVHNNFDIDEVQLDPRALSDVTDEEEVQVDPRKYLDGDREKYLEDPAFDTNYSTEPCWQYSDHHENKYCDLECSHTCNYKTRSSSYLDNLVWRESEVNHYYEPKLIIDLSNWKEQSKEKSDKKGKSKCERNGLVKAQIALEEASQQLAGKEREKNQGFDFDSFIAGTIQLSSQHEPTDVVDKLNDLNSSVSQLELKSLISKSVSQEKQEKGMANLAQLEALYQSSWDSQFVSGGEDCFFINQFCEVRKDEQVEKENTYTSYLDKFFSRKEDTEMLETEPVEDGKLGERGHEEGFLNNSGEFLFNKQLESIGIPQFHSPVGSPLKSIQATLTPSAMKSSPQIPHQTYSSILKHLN
Maternal embryonic leucine zipper kinase (Homo sapiens), sequence (Q14680 whole entry, looked up, canonical isoform): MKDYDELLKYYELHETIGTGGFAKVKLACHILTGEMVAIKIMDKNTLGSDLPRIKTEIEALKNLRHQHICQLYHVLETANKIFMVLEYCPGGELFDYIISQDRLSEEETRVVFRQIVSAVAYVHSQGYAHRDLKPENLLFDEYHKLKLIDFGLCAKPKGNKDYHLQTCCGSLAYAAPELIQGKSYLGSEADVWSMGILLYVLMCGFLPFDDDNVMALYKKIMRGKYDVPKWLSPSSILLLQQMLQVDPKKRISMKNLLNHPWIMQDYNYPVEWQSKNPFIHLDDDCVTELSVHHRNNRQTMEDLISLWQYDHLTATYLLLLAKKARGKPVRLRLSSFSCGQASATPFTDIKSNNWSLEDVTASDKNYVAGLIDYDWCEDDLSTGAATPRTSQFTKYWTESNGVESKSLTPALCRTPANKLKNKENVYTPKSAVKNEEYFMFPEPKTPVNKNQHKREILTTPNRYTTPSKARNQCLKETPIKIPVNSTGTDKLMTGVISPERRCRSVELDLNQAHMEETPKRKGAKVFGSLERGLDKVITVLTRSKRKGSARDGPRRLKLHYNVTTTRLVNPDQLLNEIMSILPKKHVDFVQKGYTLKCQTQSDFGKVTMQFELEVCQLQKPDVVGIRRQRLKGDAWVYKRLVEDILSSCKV
Serine/threonine-protein kinase 33 (Homo sapiens), sequence (Q9BYT3 whole entry, looked up): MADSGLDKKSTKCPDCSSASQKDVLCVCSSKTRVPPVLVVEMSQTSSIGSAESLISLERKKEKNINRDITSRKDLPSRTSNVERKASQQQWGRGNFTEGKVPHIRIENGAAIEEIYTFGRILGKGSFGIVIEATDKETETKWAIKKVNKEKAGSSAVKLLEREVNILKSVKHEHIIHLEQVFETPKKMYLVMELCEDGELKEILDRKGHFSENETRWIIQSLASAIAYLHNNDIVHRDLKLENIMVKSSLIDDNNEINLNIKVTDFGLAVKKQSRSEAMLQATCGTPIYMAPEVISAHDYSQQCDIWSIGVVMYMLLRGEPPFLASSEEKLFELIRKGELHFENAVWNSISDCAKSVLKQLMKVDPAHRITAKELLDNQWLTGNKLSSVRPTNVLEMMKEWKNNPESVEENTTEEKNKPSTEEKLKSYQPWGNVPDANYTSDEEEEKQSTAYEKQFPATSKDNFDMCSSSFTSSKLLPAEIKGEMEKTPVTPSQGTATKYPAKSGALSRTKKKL
Rho-associated protein kinase (Homo sapiens), sequence (O75116 whole entry, looked up): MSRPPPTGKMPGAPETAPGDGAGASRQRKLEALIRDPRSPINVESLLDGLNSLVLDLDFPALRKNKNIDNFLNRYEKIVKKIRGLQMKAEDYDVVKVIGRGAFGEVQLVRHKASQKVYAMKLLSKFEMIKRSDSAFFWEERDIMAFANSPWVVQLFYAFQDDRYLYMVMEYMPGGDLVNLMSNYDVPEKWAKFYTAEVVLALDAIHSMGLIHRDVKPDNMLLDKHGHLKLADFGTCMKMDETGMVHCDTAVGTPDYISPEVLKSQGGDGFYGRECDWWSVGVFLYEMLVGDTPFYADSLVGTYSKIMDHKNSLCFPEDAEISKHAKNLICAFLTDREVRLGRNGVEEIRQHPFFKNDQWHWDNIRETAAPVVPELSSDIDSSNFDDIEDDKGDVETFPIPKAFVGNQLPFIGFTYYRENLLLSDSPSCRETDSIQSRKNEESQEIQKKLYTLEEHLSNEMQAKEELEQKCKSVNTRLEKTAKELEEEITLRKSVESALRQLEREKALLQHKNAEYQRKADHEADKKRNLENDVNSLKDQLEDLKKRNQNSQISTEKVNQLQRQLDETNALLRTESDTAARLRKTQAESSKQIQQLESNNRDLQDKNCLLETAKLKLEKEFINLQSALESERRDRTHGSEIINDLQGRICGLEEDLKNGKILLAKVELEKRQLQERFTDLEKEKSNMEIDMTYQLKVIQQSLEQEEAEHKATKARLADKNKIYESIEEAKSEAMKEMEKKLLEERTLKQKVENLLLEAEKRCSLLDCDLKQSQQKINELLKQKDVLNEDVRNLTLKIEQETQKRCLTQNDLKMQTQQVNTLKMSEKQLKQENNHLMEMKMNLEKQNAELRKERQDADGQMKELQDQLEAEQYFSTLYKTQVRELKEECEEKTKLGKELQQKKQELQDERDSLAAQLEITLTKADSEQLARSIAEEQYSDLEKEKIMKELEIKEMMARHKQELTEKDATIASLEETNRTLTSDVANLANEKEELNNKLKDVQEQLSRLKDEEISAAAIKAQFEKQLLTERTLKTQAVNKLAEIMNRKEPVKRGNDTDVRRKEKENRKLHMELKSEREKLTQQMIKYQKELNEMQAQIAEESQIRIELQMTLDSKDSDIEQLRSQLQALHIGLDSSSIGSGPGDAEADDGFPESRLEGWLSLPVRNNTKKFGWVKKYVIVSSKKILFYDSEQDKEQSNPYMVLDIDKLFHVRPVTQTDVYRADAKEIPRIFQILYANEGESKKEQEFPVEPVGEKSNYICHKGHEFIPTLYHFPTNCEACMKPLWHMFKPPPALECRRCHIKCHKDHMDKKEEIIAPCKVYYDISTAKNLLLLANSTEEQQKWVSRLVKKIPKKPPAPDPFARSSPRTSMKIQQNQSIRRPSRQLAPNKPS
Rho-associated protein kinase (Homo sapiens), sequence (Q13464 whole entry, looked up): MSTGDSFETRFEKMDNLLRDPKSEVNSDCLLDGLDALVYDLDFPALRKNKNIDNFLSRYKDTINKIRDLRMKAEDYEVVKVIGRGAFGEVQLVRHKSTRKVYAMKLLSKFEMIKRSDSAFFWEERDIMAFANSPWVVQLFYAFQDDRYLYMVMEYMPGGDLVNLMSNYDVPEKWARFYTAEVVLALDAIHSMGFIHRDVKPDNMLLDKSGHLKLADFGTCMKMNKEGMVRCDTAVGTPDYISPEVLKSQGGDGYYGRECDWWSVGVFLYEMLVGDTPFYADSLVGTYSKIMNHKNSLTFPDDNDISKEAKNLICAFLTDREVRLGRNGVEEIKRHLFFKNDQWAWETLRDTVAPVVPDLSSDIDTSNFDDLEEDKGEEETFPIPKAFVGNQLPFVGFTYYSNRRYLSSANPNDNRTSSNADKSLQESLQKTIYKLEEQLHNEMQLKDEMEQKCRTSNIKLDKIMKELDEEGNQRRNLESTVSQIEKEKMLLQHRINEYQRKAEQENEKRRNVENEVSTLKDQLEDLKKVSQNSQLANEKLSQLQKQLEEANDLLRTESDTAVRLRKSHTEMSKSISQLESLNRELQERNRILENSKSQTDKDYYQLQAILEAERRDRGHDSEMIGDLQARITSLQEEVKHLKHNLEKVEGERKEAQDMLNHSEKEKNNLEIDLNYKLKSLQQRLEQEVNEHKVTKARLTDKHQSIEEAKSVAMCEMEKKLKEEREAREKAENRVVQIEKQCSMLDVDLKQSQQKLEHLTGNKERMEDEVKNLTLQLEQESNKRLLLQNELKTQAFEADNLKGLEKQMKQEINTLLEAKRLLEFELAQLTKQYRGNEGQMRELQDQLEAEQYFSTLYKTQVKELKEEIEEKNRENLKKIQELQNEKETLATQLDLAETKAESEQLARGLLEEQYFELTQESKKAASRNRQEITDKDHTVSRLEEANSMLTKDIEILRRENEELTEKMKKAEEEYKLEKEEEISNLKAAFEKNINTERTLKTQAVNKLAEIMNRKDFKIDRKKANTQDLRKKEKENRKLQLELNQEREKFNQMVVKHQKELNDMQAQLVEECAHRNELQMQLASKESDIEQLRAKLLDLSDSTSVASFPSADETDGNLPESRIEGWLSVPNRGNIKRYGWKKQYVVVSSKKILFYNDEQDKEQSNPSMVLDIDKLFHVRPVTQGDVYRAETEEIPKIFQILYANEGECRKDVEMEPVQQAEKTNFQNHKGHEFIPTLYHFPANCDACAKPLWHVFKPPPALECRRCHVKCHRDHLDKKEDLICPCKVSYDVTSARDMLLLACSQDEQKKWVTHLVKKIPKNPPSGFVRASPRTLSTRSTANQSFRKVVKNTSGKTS

CCN1CCN(Cc2ccc(NC(=O)c3ccc(C)c(Oc4ccnc5[nH]ccc45)c3)cc2C(F)(F)F)CC1
inhibition [1]: inactive
inhibition [2]: inactive
inhibition [3]: 1.3%
inhibition [4]: 14.5%
inhibition [5]: 4%
inhibition [6]: 0.1%
inhibition [7]: 4.1%
inhibition [8]: -1.5%
residual activity [9]: 8.2%

CCN1CCN(Cc2ccc(NC(=O)c3ccc(C)c(/C=C/c4cnc5[nH]ccc5c4OC)c3)cc2C(F)(F)F)CC1
inhibition [10]: 78%
inhibition [11]: 57%
inhibition [12]: 1.9%
inhibition [13]: 34.5%
inhibition [14]: 7.3%
inhibition [15]: 32.7%

CNc1cc(Oc2cc(C(=O)Nc3cc(N4CCN(C)CC4)cc(C(F)(F)F)c3)ccc2C)ncn1
inhibition [16]: 7.4%
inhibition [17]: 22.6%

From ChEMBL document CHEMBL5696442, “Discovery of type II inhibitors of TGFβ-activated kinase 1 (TAK1) and mitogen-activated protein kinase kinase kinase kinase 2 (MAP4K2)” (J Med Chem, 2015)
